From paper PMC6481345, “A novel anti-melanoma SRC-family kinase inhibitor” (Oncotarget, 2019)
“Also recorded” adds a separate entry of the source.

Assays:
[1] = system: pY416 SFK; experiment: Western blot, auto-phosphorylated Y416 of SFK; format: cell-based, human; conditions: melanoma cell lines; SAB298 0.5 µM, 5 hrs
Procedure: (§1) The effect of SAB298 on a panel of 36 recombinant kinases, was screed with the radioisotope filter binding assay employing 10 concentrations of the compound with 10 µM ATP (Reaction Biology Corporation, Malvern, PA). In addition, we tested the endogenous kinome response to SAB298 (0.05 µM, 0.5 µM and 5 µM) in lysates from two melanoma cell lines (YUSIV and YUSIK) employing the KiNativ® platform (ActivX Biosciences Inc., La Jolla, CA). KiNativ® is a robust, high performance mass spectrometry (LC-MS^2) assay that uses biotinylated probes to measure relevant changes in the affinity to the ATP-binding sites of 205 native kinases as a function of cellular context. We also validated SAB298 effect on the activity of SRC-family kinases by probing for phosphorylated Y416, the marker of activated SFKs, with anti-IEDNEpYTAR antibodies (also known as Y419, #2101, Cell Signaling Technology, Beverly, MA). In some cases the cells were incubated overnight with 20 µM proteasome inhibitor MG-132 (CAS 133407-82-6, Millipore Sigma, Burlington, MA) to rescue degradation.
We used standard techniques to identify changes in intracellular signaling in response to various treatments. […] Protein concentrations were measured with the BioRad kit (Bio-Rad Laboratories, Hercules, CA), SDS sample buffer was added, extracts were heated at 95°C, sonicated and centrifuged. […]

[2] = target: T1, mTOR (Homo sapiens, UniProt P42345); experiment: KiNativ in situ kinase profiling in melanoma cell lysates; format: binding; conditions: 3-point dose response
T1 construct: we tested the endogenous kinome response to SAB298; host or cells: YUSIV and YUSIK melanoma cell lysates
Procedure: as §1

[3] = target: T2, EGFR (Homo sapiens, UniProt P00533); experiment: as above; format: binding; conditions: 3-point dose response
T2 construct: we tested the endogenous kinome response to SAB298; host or cells: YUSIV and YUSIK melanoma cell lysates
Procedure: as §1

[4] = target: T3, RIPK2 (Homo sapiens, UniProt O43353); experiment: as above; format: binding; conditions: RIPK2 in YUSIK lysate; 3-point dose response
T3 construct: we tested the endogenous kinome response to SAB298; host or cells: YUSIV or YUSIK melanoma cell lysate
Procedure: as §1

[5] = target: T4, ERBB3 (Homo sapiens, UniProt P21860); experiment: as above; format: binding; conditions: 3-point dose response
T4 construct: we tested the endogenous kinome response to SAB298; host or cells: YUSIV and YUSIK melanoma cell lysates
Procedure: as §1

[6] = target: T5, MEK1 (Homo sapiens, UniProt Q02750); experiment: as above; format: binding; conditions: MEK1 in YUSIV lysate; 3-point dose response
T5 construct: we tested the endogenous kinome response to SAB298; host or cells: YUSIV or YUSIK melanoma cell lysate
Procedure: as §1

[7] = target: T6, MEK5 (Homo sapiens, UniProt Q13163); experiment: as above; format: binding; conditions: 3-point dose response
T6 construct: we tested the endogenous kinome response to SAB298; host or cells: YUSIV and YUSIK melanoma cell lysates
Procedure: as §1

[8] = system: tyrosinase; experiment: Western blot, tyrosinase levels; format: cell-based, human; conditions: YUSIK, YUKIM and YUPEET; 0.5 µM for 20 hrs
Procedure: We used standard techniques to identify changes in intracellular signaling in response to various treatments. Briefly, melanoma cells were incubated with test compounds, using DMSO as a control, collected by scraping on ice, and lysed in RIPA buffer supplemented with protease and phosphatase inhibitors (MA #78428, and #78425, respectively, Thermo Fisher Scientific, Waltham, MA). Protein concentrations were measured with the BioRad kit (Bio-Rad Laboratories, Hercules, CA), SDS sample buffer was added, extracts were heated at 95°C, sonicated and centrifuged. Cell extracts (20 µg/lane) were fractionated in 3%–8% or 4–12 % tris-acetate gel (NP0006, NuPAGE Life Technologies). […]

[9] = system: panel of 36 recombinant kinases; experiment: Radioisotope filter assay, panel of recombinant kinases (summary); format: biochemical; conditions: SRC-family kinases YES1, BLK, LCK, FGR, HCK and FYN; read-out: IC50, range over kinases
Procedure: as §1
Supplemntary Table 3: Radioisotope filter activity assay Tests for SAB298 target protein
*These are results from 10 point dose response test employed with 10 µM ATP.
Supplementary Table 4: Lentiviral vectors MISSION pLKO.1 puromycin bearing SFK shRNA used to test the effect of
specific SFK downregulation on cell proliferation […]

T4 sequence (P21860 20-1342): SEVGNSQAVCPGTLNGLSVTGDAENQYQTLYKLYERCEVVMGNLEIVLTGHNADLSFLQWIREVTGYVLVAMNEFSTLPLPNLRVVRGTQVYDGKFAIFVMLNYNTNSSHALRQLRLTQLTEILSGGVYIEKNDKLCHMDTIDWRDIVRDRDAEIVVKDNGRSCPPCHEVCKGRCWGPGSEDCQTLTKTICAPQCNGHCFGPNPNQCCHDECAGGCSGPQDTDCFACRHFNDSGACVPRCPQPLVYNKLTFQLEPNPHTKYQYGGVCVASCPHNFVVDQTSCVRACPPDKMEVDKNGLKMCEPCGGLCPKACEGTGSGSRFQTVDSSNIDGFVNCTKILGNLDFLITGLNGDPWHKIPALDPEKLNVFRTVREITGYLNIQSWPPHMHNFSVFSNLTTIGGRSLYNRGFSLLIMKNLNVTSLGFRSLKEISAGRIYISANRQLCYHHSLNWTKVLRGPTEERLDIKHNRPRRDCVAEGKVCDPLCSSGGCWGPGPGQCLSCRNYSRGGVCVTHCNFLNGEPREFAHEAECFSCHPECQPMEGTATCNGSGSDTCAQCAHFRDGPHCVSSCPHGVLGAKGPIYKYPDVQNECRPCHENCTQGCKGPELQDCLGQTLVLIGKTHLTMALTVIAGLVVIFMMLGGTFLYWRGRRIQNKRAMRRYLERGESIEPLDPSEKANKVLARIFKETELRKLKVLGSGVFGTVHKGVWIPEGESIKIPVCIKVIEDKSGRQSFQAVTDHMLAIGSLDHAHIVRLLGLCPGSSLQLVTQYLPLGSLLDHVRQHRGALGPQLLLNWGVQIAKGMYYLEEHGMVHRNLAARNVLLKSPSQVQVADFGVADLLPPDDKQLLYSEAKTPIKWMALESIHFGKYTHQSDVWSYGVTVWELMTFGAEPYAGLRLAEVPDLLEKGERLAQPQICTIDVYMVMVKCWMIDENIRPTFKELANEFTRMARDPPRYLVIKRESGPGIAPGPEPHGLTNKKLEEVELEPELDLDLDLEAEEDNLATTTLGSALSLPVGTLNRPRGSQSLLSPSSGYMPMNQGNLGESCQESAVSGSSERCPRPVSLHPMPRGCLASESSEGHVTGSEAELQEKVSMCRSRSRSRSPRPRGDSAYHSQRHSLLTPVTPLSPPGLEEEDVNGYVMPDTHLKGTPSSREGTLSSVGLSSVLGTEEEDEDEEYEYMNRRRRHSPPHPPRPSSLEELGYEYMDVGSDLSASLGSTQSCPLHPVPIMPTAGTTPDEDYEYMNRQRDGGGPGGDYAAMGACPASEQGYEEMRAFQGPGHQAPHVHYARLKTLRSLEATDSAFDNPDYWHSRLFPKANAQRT
T2 sequence (P00533 25-1210): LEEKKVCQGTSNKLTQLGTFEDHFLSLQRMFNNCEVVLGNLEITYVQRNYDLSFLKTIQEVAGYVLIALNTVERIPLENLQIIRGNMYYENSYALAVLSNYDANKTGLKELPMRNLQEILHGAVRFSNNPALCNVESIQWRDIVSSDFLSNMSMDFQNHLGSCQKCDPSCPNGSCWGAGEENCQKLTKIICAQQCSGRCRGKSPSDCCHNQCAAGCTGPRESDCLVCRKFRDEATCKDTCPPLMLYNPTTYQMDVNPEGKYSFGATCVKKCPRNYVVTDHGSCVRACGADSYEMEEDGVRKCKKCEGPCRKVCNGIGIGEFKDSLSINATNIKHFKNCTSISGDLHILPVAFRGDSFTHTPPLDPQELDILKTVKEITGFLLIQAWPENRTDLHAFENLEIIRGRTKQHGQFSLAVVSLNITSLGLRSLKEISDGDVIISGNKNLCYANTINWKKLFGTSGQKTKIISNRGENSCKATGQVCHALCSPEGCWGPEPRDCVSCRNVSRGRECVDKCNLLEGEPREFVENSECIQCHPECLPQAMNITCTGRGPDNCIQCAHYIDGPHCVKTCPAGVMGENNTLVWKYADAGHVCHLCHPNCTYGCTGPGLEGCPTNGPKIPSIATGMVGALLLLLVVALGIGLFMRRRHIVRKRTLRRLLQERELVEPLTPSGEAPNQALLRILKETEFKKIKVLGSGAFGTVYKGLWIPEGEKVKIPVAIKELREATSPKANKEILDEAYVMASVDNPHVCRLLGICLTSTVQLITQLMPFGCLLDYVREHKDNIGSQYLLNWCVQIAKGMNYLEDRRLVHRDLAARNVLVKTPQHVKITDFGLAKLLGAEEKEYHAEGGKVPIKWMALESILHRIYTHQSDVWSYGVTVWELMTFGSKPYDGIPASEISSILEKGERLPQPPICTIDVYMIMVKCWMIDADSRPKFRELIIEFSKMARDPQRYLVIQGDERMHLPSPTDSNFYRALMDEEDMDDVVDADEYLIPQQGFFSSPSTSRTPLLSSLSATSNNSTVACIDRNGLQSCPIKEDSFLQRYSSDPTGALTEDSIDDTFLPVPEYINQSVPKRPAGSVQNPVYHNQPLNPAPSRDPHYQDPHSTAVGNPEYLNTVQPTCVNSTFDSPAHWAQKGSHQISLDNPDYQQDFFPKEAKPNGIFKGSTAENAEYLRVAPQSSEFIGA
T6 sequence (Q13163 whole entry): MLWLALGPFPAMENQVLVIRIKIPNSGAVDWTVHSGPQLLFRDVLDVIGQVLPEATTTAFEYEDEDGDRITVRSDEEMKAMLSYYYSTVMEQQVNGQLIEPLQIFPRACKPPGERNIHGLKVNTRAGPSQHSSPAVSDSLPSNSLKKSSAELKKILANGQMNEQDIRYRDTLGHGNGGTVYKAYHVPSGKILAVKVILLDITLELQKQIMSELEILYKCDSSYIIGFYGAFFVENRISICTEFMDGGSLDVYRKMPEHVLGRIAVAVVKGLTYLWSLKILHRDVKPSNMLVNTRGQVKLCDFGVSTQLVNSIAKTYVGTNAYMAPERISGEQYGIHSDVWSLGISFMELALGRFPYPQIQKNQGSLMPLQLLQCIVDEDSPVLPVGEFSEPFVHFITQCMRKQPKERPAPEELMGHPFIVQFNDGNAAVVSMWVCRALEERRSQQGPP
T5 sequence (Q02750 whole entry): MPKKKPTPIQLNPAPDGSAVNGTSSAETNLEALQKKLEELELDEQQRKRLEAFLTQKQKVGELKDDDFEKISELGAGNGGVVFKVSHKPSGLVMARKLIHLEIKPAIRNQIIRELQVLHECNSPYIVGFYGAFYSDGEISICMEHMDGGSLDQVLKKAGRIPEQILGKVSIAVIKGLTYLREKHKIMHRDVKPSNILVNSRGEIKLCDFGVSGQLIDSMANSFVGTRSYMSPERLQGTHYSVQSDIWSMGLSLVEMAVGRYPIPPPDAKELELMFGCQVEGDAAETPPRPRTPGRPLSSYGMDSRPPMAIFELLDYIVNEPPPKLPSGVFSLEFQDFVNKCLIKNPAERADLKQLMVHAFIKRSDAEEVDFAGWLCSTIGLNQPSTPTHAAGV
T3 sequence (O43353 whole entry): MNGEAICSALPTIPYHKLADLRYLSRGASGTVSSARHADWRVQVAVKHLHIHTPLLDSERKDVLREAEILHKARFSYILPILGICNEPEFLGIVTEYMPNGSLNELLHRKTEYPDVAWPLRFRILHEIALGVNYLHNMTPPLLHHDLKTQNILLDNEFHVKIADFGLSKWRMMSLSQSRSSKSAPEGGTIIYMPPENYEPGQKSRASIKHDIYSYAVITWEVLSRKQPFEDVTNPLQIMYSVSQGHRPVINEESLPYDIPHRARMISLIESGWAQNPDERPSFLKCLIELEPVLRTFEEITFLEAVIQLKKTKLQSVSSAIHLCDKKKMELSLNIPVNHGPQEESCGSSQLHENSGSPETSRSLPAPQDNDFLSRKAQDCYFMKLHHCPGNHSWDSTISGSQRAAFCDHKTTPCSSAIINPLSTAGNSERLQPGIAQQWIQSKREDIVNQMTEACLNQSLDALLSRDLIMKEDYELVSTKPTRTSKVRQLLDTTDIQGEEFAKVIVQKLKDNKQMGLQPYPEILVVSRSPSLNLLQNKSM

For Nc1ncnc2c1c(-c1ccc(Oc3ccccc3)cc1)nn2C[C@@H]1SSC[C@@H]1O [SAB298, (3S, 4S)-3-((4-amino-3-(4-phenoxyphenyl)-1H-pyrazolo[3,4-d]pyrimidin-1-yl)methyl)-1,2-dithiolan-4-ol], the “pY416 SFK level” value [1] was “consistently suppressed; also recorded: downregulated pSFK Y416”, the IC50 ([2]; mTOR in YUSIK lysate) was 2000 nM and the IC50 ([2]; mTOR in YUSIV lysate) was 1300 nM. For the same compound, the IC50 ([3]; EGFR in YUSIK lysate) was 530 nM, the IC50 ([3]; EGFR in YUSIV lysate) was 1300 nM and the IC50 [4] was 20 nM. The IC50 ([5]; ERBB3 in YUSIK lysate) was 240 nM, the IC50 ([5]; ERBB3 in YUSIV lysate) was 290 nM and the IC50 [6] was 2900 nM. The IC50 ([7]; MEK5 in YUSIK lysate) was 1500 nM, the IC50 ([7]; MEK5 in YUSIV lysate) was 370 nM and the tyrosinase levels [8] was “suppressed the levels of tyrosinase”. For the same compound, the IC50 [9] was 0.7 to 21.7 nM.
